Reference: ChEMBL document CHEMBL1130796, “7,8-Methylenedioxy-4H-2,3-benzodiazepin-4-ones as novel AMPA receptor antagonists” (Bioorg Med Chem Lett, 1998)
Activity calls are given as the source filed them. No cut-off for these calls is given here.

Experiments:
[1] = species: Mus musculus; assay: Compound was evaluated for anticonvulsant activity against audiogenic induced seizures after pretreatment with aniracetam (clonic phase); assay type: functional
[2] = species: Mus musculus; assay: Compound was evaluated for anticonvulsant activity against audiogenic induced seizures after pretreatment with aniracetam (tonic phase); assay type: functional
[3] = species: Mus musculus; assay: Compound was evaluated for anticonvulsant activity against audiogenic seizures in DBA/2 mice( clonic phase); assay type: functional
[4] = species: Mus musculus; assay: Compound was evaluated for anticonvulsant activity against AMPA induced seizures in DBA/2 mice( tonic phase); assay type: functional
[5] = species: Mus musculus; assay: Compound was evaluated for anticonvulsant activity against AMPA induced seizures in DBA/2 mice( clonic phase); assay type: functional
[6] = species: Mus musculus; assay: Compound was evaluated for anticonvulsant activity against PTZ induced seizures (clonic phase) in swiss mice; assay type: functional
[7] = Compound was evaluated for toxic dose on locomotor assessed by rotarod test in mice; assay type: ADME; conditions: mouse, in vivo
[8] = species: Mus musculus; assay: Compound was evaluated for anticonvulsant activity against MES induced seizures(tonic phase) in swiss mice; assay type: functional
[9] = species: Mus musculus; assay: Compound was evaluated for anticonvulsant activity against audiogenic seizures in DBA/2 mice( tonic phase); assay type: functional
[10] = species: Mus musculus; assay: Compound was evaluated for anticonvulsant activity against audiogenic induced seizures after pretreatment with aniracetam (tonic phase); p<0.01; assay type: functional
[11] = species: Mus musculus; assay: Compound was evaluated for anticonvulsant activity against audiogenic induced seizures after pretreatment with aniracetam (clonic phase); p<0.01; assay type: functional
[12] = species: Mus musculus; assay: Compound was evaluated for anticonvulsant activity against audiogenic induced seizures after pretreatment with aniracetam (clonic phase); p <0.01; assay type: functional
[13] = species: Mus musculus; assay: Compound was evaluated for anticonvulsant activity against audiogenic induced seizures after pretreatment with aniracetam (tonic phase); p <0.01; assay type: functional
[14] = species: Mus musculus; assay: Compound was evaluated for anticonvulsant activity against audiogenic induced seizures after pretreatment with aniracetam (clonic phase); p< 0.01; assay type: functional
[15] = species: Mus musculus; assay: Compound was evaluated for anticonvulsant activity against audiogenic induced seizures after pretreatment with aniracetam (tonic phase); p< 0.01; assay type: functional
[16] = Ratio between TD50 and ED50 from the clonic phase of the audiogenic seizures was determined; assay type: ADME
[17] = species: Mus musculus; assay: Compound was evaluated for anticonvulsant activity against audiogenic induced seizures after pretreatment with aniracetam (clonic phase); ND means not detected; assay type: functional, organism-based
[18] = species: Mus musculus; assay: Compound was evaluated for anticonvulsant activity against audiogenic induced seizures after pretreatment with aniracetam (tonic phase); ND means not detected; assay type: functional, organism-based

Row | SMILES | ED50 [3] | ED50 [4] | ED50 [5] | ED50 [6] | TD50 [7] | ED50 [8] | ED50 [9] | other results
1 | COc1cc2c(cc1OC)C(c1ccccc1)=NNC(=O)C2 | 10 mg/kg | 11.9 mg/kg | 18.5 mg/kg | 19.1 mg/kg | 42.1 mg/kg | 10.6 mg/kg |  | ED50 [1]: 60.2 mg/kg; ED50 [2]: 44 mg/kg
2 | COc1cc2c(cc1OC)C(c1cccc(N)c1)=NNC(=O)C2 |  |  |  |  | 15.9 mg/kg |  |  | 
3 | COc1ccc(C2=NNC(=O)Cc3cc4c(cc32)OCO4)cc1 | > 37.2 mg/kg |  |  |  | > 62.1 mg/kg |  | > 37.2 mg/kg | 
4 | CC1=NN=C(c2ccc(N)cc2)c2cc3c(cc2C1)OCO3 [GYKI-52466] |  | 11.9 mg/kg | 16.8 mg/kg | 20 mg/kg | 22.3 mg/kg |  |  | ED50 [10]: 29.3 mg/kg; ED50 [11]: 39.3 mg/kg
5 | COc1cc2c(cc1OC)C(c1ccc(N)cc1)=NNC(=O)C2 |  | 7.73 mg/kg | 9.93 mg/kg | 6.99 mg/kg | 17.4 mg/kg | 4.92 mg/kg |  | ED50 [12]: 20.2 mg/kg; ED50 [13]: 18 mg/kg
6 | Nc1ccc(C2=NNC(=O)Cc3cc4c(cc32)OCO4)cc1 | 6.44 mg/kg | 8.41 mg/kg | 11.2 mg/kg | 21.2 mg/kg | 29.3 mg/kg | 9.48 mg/kg | 3.22 mg/kg | ED50 [14]: 18.5 mg/kg; ED50 [15]: 11.7 mg/kg
7 | O=C1Cc2cc3c(cc2C(c2ccc(O)cc2)=NN1)OCO3 | 15.5 mg/kg |  |  |  | 44.7 mg/kg |  | 14.7 mg/kg | selectivity ratio [16]: 2.9
8 | Nc1cccc(C2=NNC(=O)Cc3cc4c(cc32)OCO4)c1 | 5.32 mg/kg | 7.03 mg/kg | 8.62 mg/kg | 11.9 mg/kg | 29.8 mg/kg | 5.7 mg/kg | 3.74 mg/kg | ED50 [17]: inactive; ED50 [18]: inactive
9 | O=C1Cc2cc3c(cc2C(c2ccccc2)=NN1)OCO3 | 12.1 mg/kg | 16.8 mg/kg | 20.8 mg/kg | 23.1 mg/kg | 44.6 mg/kg | 12.6 mg/kg | 11.4 mg/kg | ED50 [17]: inactive; ED50 [18]: inactive
